Drawing on the supplement of paper PMC10290057, this text covers efficacy and AC50 cell viability for 48 compounds.

The subject of assay [1] is HCT116. In words: efficacy (fitted maximal change in viability relative to DMSO control); higher = less cytotoxic (negative = loss of viability). Conditions: 48 h.
Assay [2] has as its system HCT116. As to the kind of experiment: AC50 cell viability (CellTiter-Glo); higher = less potent. The settings on record: 48 h.

Molecules are shown by their SMILES. Where a name gives a salt, the structure may show the parent alone.
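Wherever AC50 cell viability (CellTiter-Glo) is given: HCT116 colorectal carcinoma cells screened at five concentrations per compound, luminescent viability scaled between DMSO wells and empty wells on each plate, curves fitted per compound.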
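Wherever efficacy (fitted maximal change in viability relative to DMSO control) is given: Luminescence-based viability readout, five doses per compound, normalized against on-plate DMSO and empty-well controls, followed by dose-response curve fitting for every drug.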

Turning to `Cc1c(CN2CCC(Nc3ncnc4sc(CC(F)(F)F)cc34)CC2)ccc2c1cc(C#N)n2Cc1cn[nH]c1` [MI-503], the efficacy in assay [1] is -76%. Further, the AC50 cell viability in assay [2] turned out to be 3.72 µM.

In the case of `N#Cc1cc2cc(CN3CCC(Nc4ncnc5sc(CC(F)(F)F)cc45)CC3)c(O)cc2n1Cc1cn[nH]c1` [MI-538], the efficacy in assay [1] is -111%. The compound also displayed an AC50 cell viability in assay [2] of 13.2 µM.

For the compound `CN1CCN(c2ccc3nc(-c4cc(C(C)(C)C)c(OCCCC(=O)NCCCN=[N+]=[N-])c(C(C)(C)C)c4)[nH]c3c2)CC1` [MIR96-IN-1], in assay [1], the efficacy was -98.9%. Further, the AC50 cell viability in assay [2] was determined as 8.33 µM.

On to `CC(C)(C)Sc1c(CC(C)(C)C(=O)O)n(Cc2ccc(Cl)cc2)c2ccc(OCc3ccc4ccccc4n3)cc12` [MK591], for which, in assay [1], the efficacy is -88.4%. Moreover, the AC50 cell viability in assay [2] was found to be 20.9 µM.

On to `CC(C)c1ccc2c(c1)c(SC(C)(C)C)c(CC(C)(C)C(=O)[O-])n2Cc1ccc(Cl)cc1` [MK-886], for which the efficacy in assay [1] was -83.3%. Besides, the AC50 cell viability in assay [2] came to 20.9 µM.

`C=CCn1c(=O)c2cnc(Nc3ccc(N4CCN(C)CC4)cc3)nc2n1-c1cccc(C(C)(C)O)n1` [MK-1775]: the efficacy in assay [1] was -73.8%. In assay [2], this compound registered an AC50 cell viability of 0.742 µM.

As to `NC1(CCC1)C2=CC=C(C=C2)C3=C(C=C/4C(=N3)\C=C/N5C(=O)N\N=C45)C6=CC=CC=C6` [MK-2206], in assay [1], the efficacy is -122%. Also, the AC50 cell viability in assay [2] worked out at 16.6 µM.

As for `CN(C[C@@H]1COCCO1)[S+]([O-])(=O)NC2=CC3=C(C=C2)\C=C/C4=C(C=C(C=N4)C5=C[N](C)N=C5)C3=O` [MK-2461], the efficacy in assay [1] was -103%. Moreover, in assay [2], the AC50 cell viability is 18.6 µM.

For the compound `O=C(O)C1(Cc2cccc(Nc3nccs3)n2)CCC(Oc2cccc(Cl)c2F)CC1` (stereo unspecified) [MK-5108], the efficacy in assay [1] was -34.3%. For the same compound, the AC50 cell viability in assay [2] amounted to 0.833 µM.

As to `C[N]1C=C(C=N1)C2=CN=C3\C=C/C4=CC=C(C[S+]([O-])(=O)NCC5=NC=CC=C5)C=C4C(=O)C3=C2` [MK-8033], the efficacy in assay [1] is -65.9%. For the same compound, the AC50 cell viability in assay [2] was 16.6 µM.

For the compound `Cn1cc(-c2cnn3c(N)c(Br)c(C4CCCNC4)nc23)cn1` (stereo unspecified) [MK-8776], the efficacy in assay [1] was -113%. Also, the AC50 cell viability in assay [2] turned out to be 10.5 µM.

On to `C[N]1C=C(C2=CC=CC=C12)/C3=C(/C(=O)NC3=O)C4=C[N](C)C5=CC(=CC=C45)[N+]([O-])=O` [MKC-1], for which the efficacy in assay [1] is -87.5%. Besides, in assay [2], the AC50 cell viability was 1.86 µM.

Consider `CCC1CCCCN1C(=O)n1ncc(C(O)(c2ccccc2)c2ccccc2)n1` (stereo unspecified) [ML226], for which the efficacy in assay [1] was -62.9%. Also, the AC50 cell viability in assay [2] worked out at 11.8 µM.

In the case of `CN(C(=O)CNC(=O)/C=C/c1cccc(Cl)c1)C1CC[S+](=O)([O-])CC1` (stereo unspecified) [ML264], the efficacy in assay [1] was -92.4%. In addition, in assay [2], the AC50 cell viability came to 0.742 µM.

As to `Cc1cnc(-c2ccccc2C(C)C)nc1NCc1ccc(-n2ccnn2)cc1` [ML323], the efficacy in assay [1] is -34.2%. This compound had an AC50 cell viability in assay [2] of 0.118 µM.

On to `CN(C)CCCNC(=O)c1ccc(-c2cc(O)c3ncccc3c2)cc1` [ML324], for which the efficacy in assay [1] is -86.4%. Besides, in assay [2], the AC50 cell viability came out at 14.8 µM.

Consider `O=C(NCCCNC(=O)c1cccnc1O)c1cc(-c2ccccc2)on1` [ML327], for which the efficacy in assay [1] is -62.3%. In assay [2], this compound displayed an AC50 cell viability of 8.33 µM.

With `c1ccc(-c2ccc(CNc3nc(-c4ccccn4)nnc3-c3ccccc3)cc2)cc1` [ML-228], the efficacy in assay [1] was -77%. In assay [2], this compound yielded an AC50 cell viability of 1.48 µM.

`Cc1ccc([S+](=O)([O-])Nc2cc(C(F)(F)F)ccc2C(=O)Nc2nc(-c3ccccc3)cs2)cc1` [ML-364]: the efficacy in assay [1] is -87%. Besides, the AC50 cell viability in assay [2] stood at 4.17 µM.

Consider `O=C(CCNC(=O)c1ccc(OC(F)(F)F)cc1)N[C@@H]1CCCc2ccccc21` [ML-390], for which, in assay [1], the efficacy is -57.7%. The AC50 cell viability in assay [2] turned out to be 0.742 µM.

With `C[C@@H](NC(=O)c1ncnc(N)c1Cl)c1ncc(C(=O)Nc2cc(C(F)(F)F)c(Cl)cn2)s1` [MLN 2480], in assay [1], the efficacy is -95.4%. The AC50 cell viability in assay [2] is 13.2 µM.

With `N[S+](=O)([O-])OC[C@@H]1C[C@@H](n2ccc3c(N[C@H]4CCc5ccccc54)ncnc32)C[C@@H]1O` [MLN-4924], the efficacy in assay [1] is -65.7%. Besides, the AC50 cell viability in assay [2] came out at 0.235 µM.

As to `OC(=O)C1=CC=C(NC2=NC3=C(C\N=C(/C4=CC(=CC=C34)Cl)C5=C(F)C=CC=C5F)C=N2)C=C1` [MLN-8054], the efficacy in assay [1] was -38.3%. In addition, the AC50 cell viability in assay [2] amounted to 0.332 µM.

With `Cn1cc(-c2ccncc2)c(-c2ccc(OCc3ccc4ccccc4n3)cc2)n1` [MP-10], the efficacy in assay [1] is -72.4%. In assay [2], the AC50 cell viability was 18.6 µM.

As for `COc1cc(N2CCC(O)CC2)ccc1Nc1cc(Nc2ccccc2[S+](=O)([O-])C(C)C)c2cc[nH]c2n1` [MPS1-IN-1], the efficacy in assay [1] is -73%. In addition, the AC50 cell viability in assay [2] amounted to 3.72 µM.

In the case of `COc1ccc([S+](=O)([O-])N2CCc3cccc(-c4ccncc4)c32)cc1` [MPT-0B098], in assay [1], the efficacy is -61.1%. This compound showed an AC50 cell viability in assay [2] of 0.417 µM.

`COc1cc(C(=O)NC(=N)Nc2ccc(C)c(NC(=O)c3ccc(-c4ccccc4)cc3)c2)cc(OC)c1OC` [MRT-83]: the efficacy in assay [1] is -47.2%. This compound also displayed an AC50 cell viability in assay [2] of 7.42 µM.

For `COc1ccc([C@@H](O)[C@@H](C)Oc2ccc([C@H]3O[C@H](c4ccc(O[C@H](C)[C@H](O)c5ccc(OC)c(OC)c5)c(OC)c4)[C@H](C)[C@H]3C)cc2OC)cc1OC` [Manassantin A], in assay [1], the efficacy is -81%. The compound also gave an AC50 cell viability in assay [2] of 0.372 µM.

For `CNCCCC12CCC(c3ccccc31)c1ccccc12` [Maprotiline hydrochloride], the efficacy in assay [1] was -93.9%. The compound also gave an AC50 cell viability in assay [2] of 20.9 µM.

As to `CNC(=O)[C@@H](NC(=O)[C@H](CC(C)C)[C@H](O)C(=O)NO)C(C)(C)C` [Marimastat], the efficacy in assay [1] is -54.3%. This compound also came in with an AC50 cell viability in assay [2] of 20.9 µM.

In the case of `C[C@@]12OC(=O)[C@@]1(NC(=O)[C@@H]2CCCl)[C@@H](O)[C@H]\3CCC\C=C3` [Marizomib], the efficacy in assay [1] is -92.6%. The AC50 cell viability in assay [2] stood at 0.118 µM.

As for `CN(Cc1ccc(/C=C/C(=O)NO)cc1)CC12CC3CC(CC(C3)C1)C2` [Martinostat], the efficacy in assay [1] was -89.7%. The compound further gave an AC50 cell viability in assay [2] of 0.263 µM.

With `Cc1ccc(NC(=O)c2ccc(CN3CCN(C)CC3)cc2)cc1Nc1nc(-c2cccnc2)cs1` [Masitinib], the efficacy in assay [1] is -99.1%. For the same compound, the AC50 cell viability in assay [2] worked out at 18.6 µM.

Consider `C[C@H](Cc1ccc(O)c(O)c1)[C@@H](C)Cc1ccc(O)c(O)c1` [Masoprocol], for which the efficacy in assay [1] was -46.2%. The compound also showed an AC50 cell viability in assay [2] of 18.6 µM.

With `Cc1cccc(CN2CCN(C(c3ccccc3)c3ccc(Cl)cc3)CC2)c1` (stereo unspecified) [Meclizine hydrochloride], the efficacy in assay [1] is -43.1%. In assay [2], this compound displayed an AC50 cell viability of 20.9 µM.

On to `CCN(CC)CCNC(=O)c1ccc2nc(-c3ccccc3)c(-c3ccc(CN4CCC(n5c(=O)[nH]c6ccccc65)CC4)cc3)nc2c1` [Merck-22-6], for which the efficacy in assay [1] is -99.8%. The compound further displayed an AC50 cell viability in assay [2] of 8.33 µM.

On to `C[N]1N=CC2=C1C=C(C(=C2)OC3=CC=C(NC(=O)\C4=C\C=C(\C)N(C4=O)C5=CC=C(F)C=C5)C=C3F)C6=C[NH]N=C6` [Merestinib], for which the efficacy in assay [1] was -41.2%. For the same compound, in assay [2], the AC50 cell viability is 3.32 µM.

Consider `CN(Cc1cnc2nc(N)nc(N)c2n1)c1ccc(C(=O)N[C@@H](CCC(=O)O)C(=O)O)cc1` [Methotrexate], for which, in assay [1], the efficacy was -84.4%. In assay [2], this compound gave an AC50 cell viability of 0.118 µM.

In the case of `CN(C)C1=CC=C(C=C1)C(C2=CC=C(C=C2)N(C)C)=C/3\C=C/C(/C=C3)=[N+](C)C` [Methylrosaniline chloride], the efficacy in assay [1] was -84.9%. The compound further yielded an AC50 cell viability in assay [2] of 0.833 µM.

Take `COC(=O)/C=C/C(=O)N(O)CCCCNCc1ccc(COC(=O)Nc2cccc3ccccc23)cc1` [Methylstat]: in assay [1], the efficacy was -84.5%. Moreover, the AC50 cell viability in assay [2] came to 20.9 µM.

For `CC[C@H](C)C(=O)O[C@H]1CC\C=C2\C=C/[C@H](C)[C@H](CC[C@@H]3C[C@@H](O)CC(=O)O3)[C@@H]12` [Mevastatin], the efficacy in assay [1] is -58.3%. In addition, the AC50 cell viability in assay [2] was 14.8 µM.

As for `Clc1ccc(COC(Cn2ccnc2)c2ccc(Cl)cc2Cl)c(Cl)c1` (stereo unspecified) [Miconazole nitrate], the efficacy in assay [1] was -97.9%. This compound also registered an AC50 cell viability in assay [2] of 20.9 µM.

On to `CO[C@@H]1[C@H](N(C)C(=O)c2ccccc2)C[C@H]2O[C@]1(C)n1c3ccccc3c3c4c(c5c6ccccc6n2c5c31)C(=O)NC4` [Midostaurin], for which the efficacy in assay [1] was -62.7%. In assay [2], the AC50 cell viability came to 1.48 µM.

Consider `CC1(C)CCC2(CC1)N[C@@H](C(=O)N[C@@H]1CC[C@@H](C(N)=O)OC1)[C@H](c1ccnc(Cl)c1F)[C@]21C(=O)Nc2cc(Cl)ccc21` [Milademetan], for which, in assay [1], the efficacy was -129%. Moreover, the AC50 cell viability in assay [2] turned out to be 4.02 µM.

Regarding `CNC(=O)c1nn(C)c2c1C(C)(C)Cc1cnc(Nc3ccc(N4CCN(C)CC4)cc3)nc1-2` [Milciclib], the efficacy in assay [1] is -63.4%. The same compound returned an AC50 cell viability in assay [2] of 0.525 µM.

Take `Nc1ncccc1-c1nc2ccc(-c3ccccc3)nc2n1-c1ccc(C2(N)CCC2)cc1` [Miransertib]: the efficacy in assay [1] was -126%. The compound also came in with an AC50 cell viability in assay [2] of 14.8 µM.

`O=C1c2c(O)ccc(O)c2C(=O)c2c(NCCNCCO)ccc(NCCNCCO)c21` [Mitoxantrone]: the efficacy in assay [1] was -91.4%. The compound also returned an AC50 cell viability in assay [2] of 1.18 µM.

Take `CC[S+]([O-])(=O)NC1=CC(=C(OC2=C(F)C=C(F)C=C2)C=C1)\C3=C\N(C)C(=O)C4=C3C=C[NH]4` [Mivebresib (ABBV-075)]: the efficacy in assay [1] was -97.5%. In addition, the AC50 cell viability in assay [2] came to 0.0525 µM.
